From patent publication US20130184338A1, “PHENYLPROPYL CARBAMATE DERIVATIVES FOR USE IN PREVENTING OR TREATING MULTIPLE SCLEROSIS” (Bio-Pharm Solutions Co., Ltd., priority 2011, published 2013) come the findings set out here.

For data set [1], the system named is male mice (ICR). Description: Muscle relaxation: residence time on rotarod rotating at fixed speed (15 r.p.m.). It is filed as in vivo. The following applies: Mus musculus, ip; intraperitoneal, at time of maximum effect; 50% of activity vs vehicle only; read-out: MR test ED50, II = Fixed 15 r.p.m. Rotarod. Background: The rotarod test checks motor coordination on a turning rod.

Another data set relates to male ICR mice. In words: MES (Maximal Electroshock Seizure) test in mice. In general terms: In the maximal electroshock model the usual endpoint is tonic extension of the hind limbs.
For data set [2], the system named is male mice (ICR). In words: Muscle relaxation: grip strength. Type of data set: in vivo. As to conditions: Mus musculus, ip; intraperitoneal, at time of maximum effect; 50% of activity vs vehicle only; read-out: MR test ED50, III = Grip strength. On the procedure: (§1) For testing, male mice (ICR) were purchased from ORIENT BIO INC. (Korea), divided into several groups with 6 mice in each group, and were adapted for 4-5 days. The mice having the weight ranging from 19 g to 26 g were employed for the test. The pharmacological effect of the test compounds on muscle relaxation was evaluated by Rotarod test, grip strength test, and muscular force (wire hang) test. All mice were adapted to the test environment at one hour before starting the tests. The pharmacological effects of all the test compounds were evaluated by administration through peritoneal cavity of the mice (10 ul/g, bw).
A grip strength test using the test animals' forelimbs was performed using an instrument equipped with triangle ring and designed so as to easily grip with the forelimbs of experimental animals, manufactured from Ugo Basile Inc. (Ugo Basile, Model47106, Italy). The test was conducted before and after administration of the compounds to evaluate the effects thereof. […] The mouse was made to grip the rod with its forelimbs, and its tail was pulled, where the force at which the mouse detached from the rod was recorded. The instrument indicated the force in grams. All of the mice were given […] for test, and the 3 highest values among the test opportunities were selected and the mean value was used as the test result. This experimentation was conducted according to the method described in the reference, ‘Nevins et al. (1993) Quantitative grip strength assessment as a means of evaluating muscle relaxation in mice. Psychopharmacol. 110: 92-96’.
(§2) The results of muscle relaxation activity of the phenyl carbamate compounds measured in above Experimental Examples 11.2 to 11.5 are shown in following Table 5.

For data set [3], the system named is male mice (ICR). Description: Muscle relaxation: wire hang. It is filed as in vivo. As to conditions: Mus musculus; intraperitoneal, at time of maximum effect; 50% of activity vs vehicle only; read-out: MR test ED50, IV = Wire hang. How it is done:
as §1
This experimentation was conducted using a metal wire of 30 cm in length, which was suspended between two pillars at a height of about 40 cm from the bottom covered with a soft pad. […] Each mouse was made to grip the wire using two forelimbs, and the elapse time before the mouse fell off from the wire to the pad on the bottom was recorded in seconds. Each mouse was given 5 opportunities for this test at an interval of 2 minutes period. The highest 3 records among the test opportunities were selected and the mean value was used as the test result. This experimentation was conducted according to the method described in the reference, ‘Jacqueline N. Crawley (1999) Behavioral phenotyping of transgenic and knockout mice: experimental design and evaluation of general health, sensory functions, motor abilities, and specific behavioral tests. Brain Res. 835: 18-26’.
as §2

The subject of data set [4] is male mice (ICR). Description: Muscle relaxation: endurance time on rotarod rotating at accelerated speed. Type of data set: in vivo. As to conditions: Mus musculus, ip; intraperitoneal, at time of maximum effect; 50% of activity vs vehicle only; read-out: MR test ED50, I = Acc. Rotarod. On the procedure:
as §1
At 24 hours before testing, the mice to be tested were preliminarily trained for 5 minutes on a rod rotating at the rate of 6 revolutions per a minute. The pharmacological effect on muscle relaxation of the test compounds were evaluated by observing the mice on a rod for 5 minutes, where the rod was accelerated from 4 to 40 revolutions per a minute during the test time. The endurance time that each mouse endures on the acceleratedly rotated rod without falling off from the rod was recorded. As test time for evaluation, a maximum of 5 minutes was applied. […] This experimentation was conducted according to the method described in the reference, ‘Monville et al. (2006) Comparison of incremental and accelerating protocol of the rotarod test for the assessment of motor deficits in the 6-OHDA model. J. Neurosci. Meth. 158: 219-223’.
as §2

Another data set deals with male SD rats. In words: MES (Maximal Electroshock Seizure) test in rats. The following applies: for ED50: Rattus norvegicus, po, read-out: Duration of MES test ED50.
A further data set relates to MOG EAE rat. Description: Anti-multiple sclerosis activity by MOG EAE rat.
Setting [5] is: Mus musculus, po, read-out: MES test (po) Protection %.
[6] abbreviates: Mus musculus, po, read-out: MES test (po) ED50.

Where “and” joins values, the source holds several entries; their conditions need not be identical. Identical values can stand only once. Entries after “also recorded” stand apart in the source; their conditions may differ. Like-named read-outs stand apart in the source and are kept apart here.

For the molecule `CNC(=O)OC(C)C(O)c1ccccc1Cl` (racemic) [Compound 29, 1-(2-chlorophenyl)-1-hydroxypropyl-2-N-methylcarbamate], the ED50 came out at 41 mg/kg in the data set with male mice (ICR) [1], 46 mg/kg in the data set with male mice (ICR) [2], 38 mg/kg in the data set on male mice (ICR) [3] and 30.2 mg/kg in the data set with male mice (ICR) [4]. The responders at 200 mg/kg in the data set with male ICR mice (setting [5]) was 75%.
For `C[C@@H](OC(=O)NC1CC1)[C@H](O)c1ccccc1Cl` (single isomer, unassigned) [Compound 25], the ED50 is 18.3 mg/kg in the data set with male mice (ICR) [1], 46.1 mg/kg in the data set with male mice (ICR) [2], 32.9 mg/kg in the data set on male mice (ICR) [3] and 30 mg/kg with male mice (ICR) [4]. Also, in the data set with male ICR mice (setting [5]), the responders at 200 mg/kg came out at 25%.
By mortality is commonly meant the percentage killed. Low readings indicate more survivors, high ones fewer survivors. In the case of `C[C@H](OC(N)=O)[C@@H](O)c1ccccc1Cl` [Compound 1, 1-(2-chlorophenyl)-(S)-1-hydroxypropyl-(S)-2-carbamate], the ED50 with male mice (ICR) [1] was determined as 23.3 mg/kg; in the data set with male ICR mice (Mus musculus, po, 0.25 h, read-out: Duration of MES test ED50), 21.2 mg/kg; in the data set on male ICR mice (Mus musculus, po, 0.5 h, read-out: Duration of MES test ED50) it was 22.5 mg/kg; in the data set with male ICR mice (Mus musculus, po, 1 h, read-out: Duration of MES test ED50), 13.3 mg/kg; in the data set on male ICR mice (Mus musculus, po, 2 h, read-out: Duration of MES test ED50), 13 mg/kg; in the data set on male ICR mice (Mus musculus, po, 3 h, read-out: Duration of MES test ED50), 14.7 mg/kg. Also, the ED50 in the data set with male ICR mice (Mus musculus, po, 4 h, read-out: Duration of MES test ED50) came out at 18.7 mg/kg; in the data set on male ICR mice (Mus musculus, po, 6 h, read-out: Duration of MES test ED50), 30 mg/kg; in the data set with male ICR mice (Mus musculus, po, 8 h, read-out: Duration of MES test ED50) it was 49.4 mg/kg; in the data set on male ICR mice (Mus musculus, po, 12 h, read-out: Duration of MES test ED50), 119 mg/kg; with male ICR mice (setting [6]), 13 mg/kg; in the data set with male mice (ICR) [2] it was 40.9 mg/kg. In addition, the ED50 with male mice (ICR) [3] is 13.3 mg/kg; with male SD rats (0.5 h), 5.9 mg/kg; in the data set with male SD rats (1 h), 3.3 mg/kg; with male SD rats (2 h) it was 1.4 mg/kg; in the data set with male SD rats (4 h), 6.9 mg/kg; in the data set with male SD rats (12 h), 36.1 mg/kg. Besides, in the data set on male mice (ICR) [4], the ED50 was determined as 39.7 mg/kg. Also, the “efficacy duration time (MES)” value is listed as “at least 12 hours” in the data set on male ICR mice (mice, oral) and “at least 12 hours” in the data set on male SD rats (rats, oral). For the same molecule, the “body weight gain vs vehicle group” value with MOG EAE rat (3, 10 and 50 mg/kg p.o. twice a day, days 0-30, p>0.05) is “gained weight similarly than vehicle group”. In the data set with MOG EAE rat (all groups (3, 10, 50 mg/kg p.o. twice a day, days 0-29)), this molecule yielded a Disease incidence of 100%. Further, the mortality in the data set on MOG EAE rat (rat, in vivo) is 0.0% and 5.0%. The “CD68 immunoreactivity (% of white matter area) vs vehicle” value in the data set on MOG EAE rat (spinal cord C segment, 50 mg/kg, day 30, p<0.05, 50 mg/kg) is reported as “significantly smaller than in vehicle group; also recorded: reduced immunoreactivity”; in the data set on MOG EAE rat (spinal cord T segment, all doses, day 30), “significantly less immunoreactivity; also recorded: significantly reduced immunoreactivity”; with MOG EAE rat (spinal cord combined C+T segments, all doses, day 30) it was “significantly less immunoreactivity; also recorded: significantly reduced immunoreactivity”. For the same molecule, in the data set with MOG EAE rat (spinal cord, all doses (3, 10, 50 mg/kg), all segments, day 30, MBP staining), the “demyelination area (% of white matter area) vs vehicle” value was “significantly less demyelination than vehicle treated animals; also recorded: significantly diminished demyelinated lesion volumes”.
For `C[C@@H](OC(N)=O)[C@H](O)c1ccccc1Cl` [Compound 2, 1-(2-chlorophenyl)-(R)-1-hydroxypropyl-(R)-2-carbamate], the ED50 in the data set on male mice (ICR) [1] worked out at 76.5 mg/kg; with male ICR mice (setting [6]) it was 51 mg/kg; with male mice (ICR) [2], 110 mg/kg; in the data set on male mice (ICR) [3], 43.3 mg/kg; in the data set on male mice (ICR) [4], 66.3 mg/kg.
In the case of `CNC(=O)O[C@@H](C)[C@@H](O)c1ccccc1Cl` [Compound 15, 1-(2-chlorophenyl)-(S)-1-hydroxypropyl-(S)-2-N-methylcarbamate], the ED50 in the data set on male mice (ICR) [1] was determined as 42.8 mg/kg; in the data set on male mice (ICR) [2] it was 83.6 mg/kg; in the data set on male mice (ICR) [3] it was 25.4 mg/kg; in the data set with male mice (ICR) [4], 51.4 mg/kg. In the data set on male ICR mice (setting [5]), the responders at 100 mg/kg was 75%.
